Experimental data: patent US4316898A, “Cephalosporins” (Boehringer Ingelheim KG, priority 1979, dated 1982)
Converted amounts (≈) assume the structure as drawn.

Columns and labels:
[1] = tested on: Staphylococcus aureus SG 511; experiment: Serial dilution test in the microtiter system, MIC against S. aureus SG 511; type: cell-based; conditions: SG511, minimum inhibitory concentration, 37° C., 18 to 20 hours
Description: (§1) The tests were performed using the serial dilution test in the microtiter system. The effect of the test compounds on bacteriostasis was examined at the following concentrations: 80, 40, 20, 10, 5, 2.5, 1.25, 0.6, 0.3, 0.08 and 0.02 μgm/ml. The nutrient medium consisted of 10 gm of peptone, 8 gm of meat extract oxoid, 3 gm of sodium chloride, and 2 gm of sec. sodium phosphate diluted with distilled water to […] (pH 7.2-7.4). Only in the test against streptococci 1% of glucose was added. The age of the primary cultures was approximately 20 hours. The standardization of the bacteria suspension was effected using a photometer according to the method of Eppendorf (test tube .phi. 14 mm, filter 546 nm), using for comparison a barium sulfate suspension formed by the addition of 3.0 ml of 1% barium chloride solution to 97 ml of 1% sulfuric acid. After the standardization,Streptococcus aronson was further diluted to a concentration of 1:15, and the other bacteria to a concentration of 1:1500, using a sodium chloride solution.
(§2) 16 mgm of the particular test compound were put into a 10 ml measuring flask, and the flask was subsequently filled to the mark with solvent. The further dilution series was standardized with distilled water or the appropriate solvent.
(§3) The cavities of the microtiter plates were filled with 0.2 ml of nutrient medium. 0.01 ml of the appropriate test compound solution was then added, followed by inoculation with 0.01 ml of the standardized bacteria suspension. The bacteria were incubated at 37° C. for 18 to 20 hours. Control tests using only the solvent were carried out simultaneously.
(§4) The measurement was carried out macroscopically to determine the minimum inhibitory concentration (the lowest still bacteriostatically effective concentration).
(§5) The following test organisms were used:
(§6) Staphylococcus aureus SG 511, St. aureus E 88 (β-lactamase carrier), Escherichia coli ATCC 11 775, Pseudomonas aeruginosa Hamburgensis and Pseudomonas aeruginosa Walter, Serratia macrescens ATCC 13 880, Klebsiella pneumoniae ATCC 10 031 and 272, Proteus mirabilis Hamburgensis, Proteus rettgeri Eb. cloaceae ATCC 13047, and E. coli R+TEM (β-lactamase carrier).
(§7) The following tables show the determined minimum inhibitory concentrations (MIC) for a few representative compounds (E=Na) of the present invention, and two known cephalosporins for comparison: […]

St. aureus E 88 = experiment: Serial dilution test in the microtiter system, MIC against S. aureus E 88 (β-lactamase carrier); type: cell-based; conditions: Staphylococcus aureus, E88, minimum inhibitory concentration, 37° C., 18 to 20 hours
Description: as §1, §2, §3, §4, §5, §6, §7

[2] = tested on: Escherichia coli ATCC 11 775; experiment: Serial dilution test in the microtiter system, MIC against E. coli ATCC 11775; type: cell-based; conditions: minimum inhibitory concentration, 37° C., 18 to 20 hours
Description: as §1, §2, §3, §4, §5, §6, §7

[3] = tested on: Pseudomonas aeruginosa Hamburgensis; experiment: Serial dilution test in the microtiter system, MIC against Pseudomonas aeruginosa Hamburgensis; type: cell-based; conditions: minimum inhibitory concentration, 37° C., 18 to 20 hours, read-out: MIC, Pseud. aerug. Hbg.
Description: as §1, §2, §3, §4, §5, §6, §7

[4] = tested on: Pseudomonas aeruginosa Walter; experiment: Serial dilution test in the microtiter system, MIC against Pseudomonas aeruginosa Walter; type: cell-based; conditions: minimum inhibitory concentration, 37° C., 18 to 20 hours, read-out: MIC, Pseud. aerug. Walter
Description: as §1, §2, §3, §4, §5, §6, §7

[5] = tested on: Klebsiella pneumoniae ATCC 10 031; experiment: Serial dilution test in the microtiter system, MIC against Klebsiella pneumoniae ATCC 10031; type: cell-based; conditions: minimum inhibitory concentration, 37° C., 18 to 20 hours, read-out: MIC, Klebs. pneum. ATCC 10031
Description: as §1, §2, §3, §4, §5, §6, §7

[6] = tested on: Klebsiella pneumoniae 272; experiment: Serial dilution test in the microtiter system, MIC against Klebsiella pneumoniae 272; type: cell-based; conditions: minimum inhibitory concentration, 37° C., 18 to 20 hours, read-out: MIC, Klebs. pneum. 272
Description: as §1, §2, §3, §4, §5, §6, §7

[7] = tested on: Proteus mirabilis Hamburgensis; experiment: Serial dilution test in the microtiter system, MIC against Proteus mirabilis Hamburgensis; type: cell-based; conditions: minimum inhibitory concentration, 37° C., 18 to 20 hours, read-out: MIC, Prot. Mir. Hbg.
Description: as §1, §2, §3, §4, §5, §6, §7

Proteus rettgeri = experiment: Serial dilution test in the microtiter system, MIC against Proteus rettgeri; type: cell-based; conditions: Providencia rettgeri; minimum inhibitory concentration; 37° C., 18 to 20 hours; read-out: MIC, Prot. rettg.
Description: as §1, §2, §3, §4, §5, §6, §7

Eb. cloaceae ATCC 13047 = experiment: Serial dilution test in the microtiter system, MIC against Eb. cloaceae ATCC 13047; type: cell-based; conditions: minimum inhibitory concentration; 37° C., 18 to 20 hours
Description: as §1, §2, §3, §4, §5, §6, §7

E. coli R+TEM = experiment: Serial dilution test in the microtiter system, MIC against E. coli R+TEM (β-lactamase carrier); type: cell-based; conditions: Escherichia coli, read-out: MIC, E. coli R + TEM
Description: as §1, §2, §3, §4, §5, §6, §7

[8] = tested on: Serratia macrescens ATCC 13 880; experiment: Serial dilution test in the microtiter system, MIC against Serratia marcescens ATCC 13880; type: cell-based; conditions: read-out: MIC, Serr. marcesc. ATCC 13880
Description: as §1, §2, §3, §4, §5, §6, §7

E. coli ATCC 11775 = experiment: In vivo test in mice against experimental E. coli infection; parameters: species or system Female NMRI mice; conditions: Escherichia coli, ATCC11775, sc, 168 h; subcutaneous; per dose; dose at which 50% of the animals survived; observation 7 days
Description: (§8) A series of the compounds according to the invention was tested in vivo in mice against experimental infections. As pathogenic bacteria were used E. coli ATCC 11775 and Pseudomonas aeruginosa Walter. An intraperitoneal infection was induced in each mouse with 0.2 ml of a 5% mucin suspension of the bacteria corresponding of approximately 1.4×10^6 E. coli cells and 1.3×10^6 Pseudomonas cells per mouse. Female NMRI mice were used, divided into groups of 10 animals. Two groups were untreated and the remaining groups were treated with different doses of the cephalosporins to be tested to determine the ED50 (dose at which 50% of the animals survived). The groups infected with E. coli were on the first day treated with the test compound three times ([…] post infectionem) and on the second day twice. The groups with the Pseudomonas infection were on the first day treated with the test compound six times (1, 3, 5, 7, 9 and 11 hours post infectionem), and on the following two days twice.
(§9) The observation time was in both cases 7 days.

[9] = tested on: Pseudomonas aeruginosa Walter; experiment: In vivo test in mice against experimental Pseudomonas infection; parameters: species or system Female NMRI mice; conditions: subcutaneous, observation 7 days
Description: as §8, §9

Row | SMILES | MIC [1] [µg/mL] | MIC (St. aureus E 88) [µg/mL] | MIC [2] [µg/mL] | MIC [3] [µg/mL] | MIC [4] [µg/mL] | MIC [5] [µg/mL] | MIC [6] [µg/mL] | MIC [7] [µg/mL] | MIC (Proteus rettgeri) [µg/mL] | MIC (Eb. cloaceae ATCC 13047) [µg/mL] | MIC (E. coli R+TEM) [µg/mL] | MIC [8] [µg/mL] | ED50 (E. coli ATCC 11775) [mg/kg] | ED50 ([9]; Pseudomonas aeruginosa, sc, 168 h, per dose, dose at which 50% of the animals survived) [mg/kg] | Mortality, Pseudomonas infection ([9]; at 200 mg/kg per dose)
1 | Cn1nnnc1SCC1=C(C(=O)O)N2C(=O)[C@@H](NC(=O)C(NC(=O)Nc3cnc(NC4CCC(O)CC4)nc3O)c3cccs3)[C@H]2SC1 (stereo partly shown) [F] | 1 (≈ 1.39 µM) | 8 (≈ 11.1 µM) | 0.5 (≈ 0.697 µM) | 16 (≈ 22.3 µM) | 16 (≈ 22.3 µM) | 2 (≈ 2.79 µM) | 2 (≈ 2.79 µM) | 0.5 (≈ 0.697 µM) | 2 (≈ 2.79 µM) | 4 (≈ 5.57 µM) | 16 | 2 (≈ 2.79 µM) | – | – | –
2 | Cn1nnnc1SCC1=C(C(=O)O)N2C(=O)[C@@H](NC(=O)[C@H](NC(=O)Nc3cnc(Nc4ccc(S(N)(=O)=O)cc4)nc3O)c3ccc(O)cc3)[C@H]2SC1 [L] | 0.5 (≈ 0.637 µM) | 4 (≈ 5.1 µM) | < 0.03 | 2 (≈ 2.55 µM) | 2 (≈ 2.55 µM) | 0.06 (≈ 0.0765 µM) | 0.06 (≈ 0.0765 µM) | < 0.06 | 0.13 (≈ 0.166 µM) | 0.5 (≈ 0.637 µM) | 2 | 0.06 (≈ 0.0765 µM) | 0.15 | 2.1 | –
3 | CNS(=O)(=O)c1ccc(Nc2ncc(NC(=O)N[C@@H](C(=O)N[C@@H]3C(=O)N4C(C(=O)O)=C(COC(C)=O)CS[C@H]34)c3ccc(O)cc3)c(O)n2)cc1 [H] | 1 (≈ 1.35 µM) | 16 (≈ 21.5 µM) | 0.13 (≈ 0.175 µM) | 4 (≈ 5.39 µM) | 4 (≈ 5.39 µM) | 0.5 (≈ 0.673 µM) | 0.5 (≈ 0.673 µM) | 0.6 (≈ 0.808 µM) | 0.5 (≈ 0.673 µM) | 2 (≈ 2.69 µM) | 16 | 0.5 (≈ 0.673 µM) | – | – | –
4 | CO/N=C(\C(=O)N[C@@H]1C(=O)N2C(C(=O)O)=C(COC(N)=O)CS[C@H]12)c1ccco1 [Cefuroxim, reference compound] | 1 (≈ 2.36 µM) | 16 (≈ 37.7 µM) | 8 (≈ 18.9 µM) | > 100 | > 100 | 2 (≈ 4.71 µM) | 4 (≈ 9.43 µM) | 0.5 (≈ 1.18 µM) | 2 (≈ 4.71 µM) | 32 (≈ 75.4 µM) | 4 | 8 (≈ 18.9 µM) | 37 | – | all animals died
5 | CNc1nnc(SCC2=C(C(=O)O)N3C(=O)[C@@H](NC(=O)[C@H](NC(=O)Nc4cnc(Nc5ccc(S(=O)(=O)NC)cc5)nc4O)c4ccc(O)cc4)[C@H]3SC2)s1 [J] | 1 (≈ 1.2 µM) | 16 (≈ 19.3 µM) | 0.5 (≈ 0.602 µM) | 8 (≈ 9.64 µM) | 8 (≈ 9.64 µM) | 0.5 (≈ 0.602 µM) | 0.25 (≈ 0.301 µM) | 0.25 (≈ 0.301 µM) | 1 (≈ 1.2 µM) | 1 (≈ 1.2 µM) | 8 | 0.5 (≈ 0.602 µM) | – | – | –
6 | CNS(=O)(=O)c1ccc(Nc2ncc(NC(=O)N[C@@H](C(=O)N[C@@H]3C(=O)N4C(C(=O)O)=C(CSc5nnc(C)s5)CS[C@H]34)c3ccc(O)cc3)c(O)n2)cc1 [N] | 1 (≈ 1.23 µM) | 8 (≈ 9.82 µM) | 0.25 (≈ 0.307 µM) | 4 (≈ 4.91 µM) | 4 (≈ 4.91 µM) | 0.25 (≈ 0.307 µM) | 0.5 (≈ 0.614 µM) | 0.5 (≈ 0.614 µM) | 0.5 (≈ 0.614 µM) | 1 (≈ 1.23 µM) | 4 | 0.25 (≈ 0.307 µM) | – | – | –
7 | CC(=O)Nc1nnc(SCC2=C(C(=O)O)N3C(=O)[C@@H](NC(=O)[C@H](NC(=O)Nc4cnc(NC5CCC(O)CC5)nc4O)c4ccc(O)cc4)[C@H]3SC2)s1 (stereo partly shown) [D] | 1 (≈ 1.27 µM) | 8 (≈ 10.2 µM) | 1 (≈ 1.27 µM) | 8 (≈ 10.2 µM) | 8 (≈ 10.2 µM) | 2 (≈ 2.54 µM) | 2 (≈ 2.54 µM) | 1 (≈ 1.27 µM) | 8 (≈ 10.2 µM) | 8 (≈ 10.2 µM) | 16 | 4 (≈ 5.08 µM) | – | – | –
